Values after ≈ are worked out from the molar mass of the structure shown.
What was measured:
Experiment in all cases: minimum inhibitory concentration (MIC) method
Format in all cases: cell-based
S. salivarius = settings: 37° C. 24 hours
Protocol: (§1) Another method of determining antimicrobial activity is to assess the Minimum inhibitory concentration (MIC) of the composition under test. […] Thereafter, increased concentrations will have a limiting effect on growth, until the concentration is reached where no growth relative to the control is observed. That point of no growth is the minimum inhibitory concentration. […] A positive control with the bacterium alone was prepared as well as an ethanol control. The tubes were incubated at 37° C. for 24 hours and growth of the bacterium was determined by observing the change in turbidity.

B. subtilis = settings: 37° C. 24 hours
Protocol: as §1

B. megaterium = settings: 37° C. 24 hours
Protocol: as §1

S. saprophyticus = settings: Staphylococcus saprophyticus; exp 1; 37° C. 24 hours; read-out: MIC, agent alone
Protocol: as §1, with “turbidity. […] Since the filing of the original application Ser. […] Pseudomonas fluorescens, Pseudomonas aeruginosa, Proteus vulgaris, Serratia marcescens, Proteus mirabilis and Enterobacter clocae.” for “turbidity.”

- MIC (S. salivarius; Streptococcus salivarius, exp 1, read-out: MIC, agent alone): < 10 µg/mL
- MIC, agent alone (S. salivarius; exp 2): <10 µg/mL
- MIC (B. subtilis; Bacillus subtilis, exp 1, read-out: MIC, agent alone): > 1 µg/mL
- MIC, agent alone (B. subtilis; exp 1): >1 µg/mL
- MIC, agent alone (B. subtilis; exp 2): >1 µg/mL
- MIC (B. megaterium; Priestia megaterium, exp 2, read-out: MIC, agent alone): 10 µg/mL (≈ 28.2 µM)
- MIC, agent alone (B. megaterium; exp 1): 10 µg/mL (≈ 28.2 µM)
- MIC (S. saprophyticus): 1 to 10 µg/mL (≈ 2.82 to 28.2 µM)
SMILES: COc1cc(O)c(CC=C(C)C)c(O)c1C(=O)/C=C/c1ccc(O)cc1 [X, xanthohumol]
